Measured values from patent US20090227619A1, “Harmine derivatives, intermediates used in their preparations, preparation processes and use therefo” (priority 2003, published 2009).
Read-outs that look alike come from different tables or passages of the source.

Experiments:
S180 sarcoma = conditions: S180 sarcoma; for Body weight of the animals, beginning, First time / Body weight of the animals, end, First time / Inhibition rate, First time / Weight of the tumor X ± SD, First time / Body weight of the animals, beginning, Second time / Body weight of the animals, end, Second time / Inhibition rate, Second time: ip × 10qd; for Inhibition rate (%) S180 sarcomata: comparison table 43, in vivo
Lewis lung cancer = conditions: Lewis lung cancer; for Body weight of the animals, end, First time / Body weight of the animals, end, Second time: ip × 10qd; for Inhibition rate (%) Lewis cancer: comparison table 43, in vivo;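 for all read-outs here: mice implanted subcutaneously in the axilla with Lewis lung tumor cells, treated starting the following day, killed roughly three weeks after implantation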
HepG2 = assay: In vitro cytotoxicity, IC50 by MTT method, HepG2; assay type: cell-based, human; conditions: Homo sapiens
Outline: (§1)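 Cells in RPMI1640 with 10% FBS at 37° C, 5% CO2 were seeded at 10^5/ml and exposed to a compound concentration gradient for 48 h, at least three replicates, solvent controls.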

Lovo = assay: In vitro cytotoxicity, IC50 by MTT method, Lovo; assay type: cell-based; conditions: Homo sapiens
Outline: as §1

Hela = assay: In vitro cytotoxicity, IC50 by MTT method, Hela; assay type: cell-based; conditions: Homo sapiens
Outline: as §1

in vivo = conditions: both, Kunming, mouse, ip
Method: (§2) Five grades of dosages for each sample according to the results of the preliminary test, each dosage being 0.8 larger than the previous one
(§3) During the experiment, each sample was added a small amount of Tween-80 to facilitate dissolution after the sample was weighed, and then 0.5% CMC-Na solution was gradually added to achieve the desired concentration. The experimental volume was 0.5 ml/20 g mouse.
(§4) Single injection via intraperitoneal (i.p.) to different groups mice.
(§5) Kunming mice were divided into different groups randomly according to their sex. The medicament was intraperitoneally administered to each group of mice according to the dosage setting. After the administration of the medicaments, mice were observed continuously for the first 2 h for any gross behavioral changes and deaths. Dead animals were dissected and examined for any possible organ damage. […] Conditions of animals died within two week were recorded. After two weeks, all survived animals were sacrificed and checked macroscopically for possible damage to the heart, liver, kidneys and so on. Viscera that had substantive pathological changes were pathologically examined.

PLA-801 = assay: In vitro cytotoxicity, IC50 by MTT method, PLA-801; assay type: cell-based
Outline: as §1

Kunming mice = conditions: for Death rate: single i.p.
Method: as §2, §3, §4, §5

Bel-7402 = assay: In vitro cytotoxicity, IC50 by MTT method, Bel-7402; assay type: cell-based; conditions: Homo sapiens, Bel-7402
Outline: as §1

NIH3T3 = assay: In vitro cytotoxicity, IC50 by MTT method, NIH3T3; assay type: cell-based; conditions: Mus musculus
Outline: as §1

CT-DNA = assay: DNA thermal denaturation, determination of ΔTm; assay type: binding; conditions: 20 uM compound, Tm of CT-DNA alone 61° C.
Method: Experiments were carried out in PE buffer (1 mM Na2HPO4, 0.1 mM EDTA, pH 7.6) in a thermostatically controlled cell hold, and the quartz cuvette (1 cm path length) was heated by circulating water at a heating rate of 0.5° C./min from 25 to 95° C. Amsacrine and Doxorubicin Hydrochloride were used as standards. In all cases, the concentration of CT-DNA was 15 ug/ml. The ‘melting’ temperature Tm was taken as the mid-point of the hyperchromic transition.
ΔTm=Tm^drug-DNA complex−Tm^DNA alone
The ΔTm of each compound was calculated, Experiments were repeated three times, and an average value was calculated.

BGC-823 = assay: In vitro cytotoxicity, IC50 by MTT method, BGC-823; assay type: cell-based; conditions: Homo sapiens, BGC-823
Outline: as §1

[1] = 50% male 50% female mice, 240 mg/kg
[2] = 50% male 50% female mice, 300 mg/kg
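Throughout, for Death rate: acute toxicity in Kunming mice grouped by sex, one intraperitoneal dose at five graded levels in Tween-80 plus 0.5% CMC-Na, deaths monitored over two weeks.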
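Throughout, for LD50: acute toxicity in Kunming mice grouped by sex, one intraperitoneal dose at five graded levels in Tween-80 plus 0.5% CMC-Na, deaths monitored over two weeks.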
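Throughout, for MTD: acute toxicity in Kunming mice grouped by sex, one intraperitoneal dose at five graded levels in Tween-80 plus 0.5% CMC-Na, deaths monitored over two weeks.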
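Throughout, for Sex: acute toxicity in Kunming mice grouped by sex, one intraperitoneal dose at five graded levels in Tween-80 plus 0.5% CMC-Na, deaths monitored over two weeks.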

CCOC(=O)c1cc2c3ccccc3n(Cc3ccccc3)c2cn1 [Compound 33, ethyl 9-benzyl-β-carboline-3-carboxylate]
Body weight of the animals, beginning, First time (S180 sarcoma; Dosage 50 (mg/ml)): 19.4 g
Body weight of the animals, end, First time (S180 sarcoma; Dosage 50 (mg/ml)): 24.4 g
Inhibition rate, First time (S180 sarcoma; Dosage 50 (mg/ml)): 33.33%
Weight of the tumor X ± SD, First time (S180 sarcoma; Dosage 50 (mg/ml)): 1.78 ± 0.17 g
Body weight of the animals, beginning, Second time (S180 sarcoma; Dosage 50 (mg/ml)): 18.7 g
Body weight of the animals, end, Second time (S180 sarcoma; Dosage 50 (mg/ml)): 25.6 g
Inhibition rate, Second time (S180 sarcoma; Dosage 50 (mg/ml)): 32.22%
Weight of the tumor X ± SD, Second time (S180 sarcoma; Dosage 50, ip × 10qd): 1.83 ± 0.19 g
Body weight of the animals, beginning, First time (S180 sarcoma; Dosage 100 (mg/ml)): 19.4 g
Body weight of the animals, end, First time (S180 sarcoma; Dosage 100 (mg/ml)): 24.6 g
Inhibition rate, First time (S180 sarcoma; Dosage 100 (mg/ml)): 42.70%
Weight of the tumor X ± SD, First time (S180 sarcoma; Dosage 100 (mg/ml)): 1.53 ± 0.15 g
Body weight of the animals, beginning, Second time (S180 sarcoma; Dosage 100 (mg/ml)): 18.6 g
Body weight of the animals, end, Second time (S180 sarcoma; Dosage 100 (mg/ml)): 25.1 g
Inhibition rate, Second time (S180 sarcoma; Dosage 100 (mg/ml)): 40.00%
Weight of the tumor X ± SD, Second time (S180 sarcoma; Dosage 100, ip × 10qd): 1.62 ± 0.30 g
Inhibition rate (%) S180 sarcomata (S180 sarcoma): 42.11%
Body weight of the animals, end, First time (Lewis lung cancer; Dosage 50 (mg/ml)): 25.4 g
Body weight of the animals, end, Second time (Lewis lung cancer; Dosage 50 (mg/ml)): 24.9 g
Body weight of the animals, beginning, First time (Lewis lung cancer; Dosage 50, ip × 10qd): 20.3 g
Inhibition rate, First time (Lewis lung cancer; Dosage 50, ip × 10qd): 34.16%
Weight of the tumor X ± SD, First time (Lewis lung cancer; Dosage 50, ip × 10qd): 1.60 ± 0.09 g
Body weight of the animals, beginning, Second time (Lewis lung cancer; Dosage 50, ip × 10qd): 18.9 g
Inhibition rate, Second time (Lewis lung cancer; Dosage 50, ip × 10qd): 31.06%
Weight of the tumor X ± SD, Second time (Lewis lung cancer; Dosage 50, ip × 10qd): 2.02 ± 0.18 g
Body weight of the animals, end, First time (Lewis lung cancer; Dosage 100 (mg/ml)): 24.7 g
Body weight of the animals, end, Second time (Lewis lung cancer; Dosage 100 (mg/ml)): 24.5 g
Body weight of the animals, beginning, First time (Lewis lung cancer; Dosage 100, ip × 10qd): 19.9 g
Inhibition rate, First time (Lewis lung cancer; Dosage 100, ip × 10qd): 42.80%
Weight of the tumor X ± SD, First time (Lewis lung cancer; Dosage 100, ip × 10qd): 1.39 ± 0.15 g
Body weight of the animals, beginning, Second time (Lewis lung cancer; Dosage 100, ip × 10qd): 19.0 g
Inhibition rate, Second time (Lewis lung cancer; Dosage 100, ip × 10qd): 43.34%
Weight of the tumor X ± SD, Second time (Lewis lung cancer; Dosage 100, ip × 10qd): 1.66 ± 0.12 g
Inhibition rate (%) Lewis cancer (Lewis lung cancer): 43.3%
IC50 (HepG2; HepG2 cell strain, read-out: IC50 HepG2): 80 µM
IC50 (Lovo; Lovo cell strain, read-out: IC50 Lovo): 120 µM
IC50 (Hela; Hela cell strain, read-out: IC50 Hela): 10 µM
LD50 at 2 weeks (in vivo): 240 mg/kg
IC50 (PLA-801; PLA-801 cell strain, read-out: IC50 PLA-801): 170 µM
Death rate (Kunming mice; [1]): 50
Death rate (Kunming mice; [2]): 90
Death rate (Kunming mice; female mice, 240 mg/kg): 60
Death rate (Kunming mice; female mice, 300 mg/kg): 100
Death rate (Kunming mice; male mice, 240 mg/kg): 40
Death rate (Kunming mice; male mice, 300 mg/kg): 80
LD50 (Kunming mice; mouse, in vivo, ip): 211 to 274 mg/kg
IC50 (Bel-7402; Bel7402 cell strain, read-out: IC50 Bel7402): 340 µM
IC50 (NIH3T3; NIH3T3 cell strain, read-out: IC50 NIH3T3): 50 µM
ΔTm (CT-DNA; CT-DNA 15 ug/ml, PE buffer pH 7.6): −1.2 °C
ΔTm (CT-DNA; CT-DNA thermal denaturation): −1.2 °C
IC50 (BGC-823; BGC823 cell strain, read-out: IC50 BGC823): 150 µM

CCOC(=O)c1cc2c([nH]c3ccccc32)c(C)n1 [Compound 11, ethyl 1-methyl-β-carboline-3-carboxylate]
Body weight of the animals, beginning, First time (S180 sarcoma; Dosage 25 (mg/ml)): 19.5 g
Body weight of the animals, end, First time (S180 sarcoma; Dosage 25 (mg/ml)): 26.3 g
Inhibition rate, First time (S180 sarcoma; Dosage 25 (mg/ml)): 34.74%
Weight of the tumor X ± SD, First time (S180 sarcoma; Dosage 25 (mg/ml)): 1.86 ± 0.18 g
Body weight of the animals, beginning, Second time (S180 sarcoma; Dosage 25 (mg/ml)): 20.4 g
Body weight of the animals, end, Second time (S180 sarcoma; Dosage 25 (mg/ml)): 24.2 g
Inhibition rate, Second time (S180 sarcoma; Dosage 25 (mg/ml)): 31.93%
Weight of the tumor X ± SD, Second time (S180 sarcoma; Dosage 25, ip × 10qd): 1.94 ± 0.16 g
Body weight of the animals, beginning, First time (S180 sarcoma; Dosage 50 (mg/ml)): 19.5 g
Body weight of the animals, end, First time (S180 sarcoma; Dosage 50 (mg/ml)): 25.9 g
Inhibition rate, First time (S180 sarcoma; Dosage 50 (mg/ml)): 44.21%
Weight of the tumor X ± SD, First time (S180 sarcoma; Dosage 50 (mg/ml)): 1.59 ± 0.16 g
Body weight of the animals, beginning, Second time (S180 sarcoma; Dosage 50 (mg/ml)): 20.6 g
Body weight of the animals, end, Second time (S180 sarcoma; Dosage 50 (mg/ml)): 23.9 g
Inhibition rate, Second time (S180 sarcoma; Dosage 50 (mg/ml)): 43.16%
Weight of the tumor X ± SD, Second time (S180 sarcoma; Dosage 50, ip × 10qd): 1.62 ± 0.38 g
Inhibition rate (%) S180 sarcomata (S180 sarcoma): 44.21%
Body weight of the animals, end, First time (Lewis lung cancer; Dosage 25 (mg/ml)): 23.4 g
Body weight of the animals, end, Second time (Lewis lung cancer; Dosage 25 (mg/ml)): 24.5 g
Body weight of the animals, beginning, First time (Lewis lung cancer; Dosage 25, ip × 10qd): 18.7 g
Inhibition rate, First time (Lewis lung cancer; Dosage 25, ip × 10qd): 29.08%
Weight of the tumor X ± SD, First time (Lewis lung cancer; Dosage 25, ip × 10qd): 1.78 ± 0.16 g
Body weight of the animals, beginning, Second time (Lewis lung cancer; Dosage 25, ip × 10qd): 19.9 g
Inhibition rate, Second time (Lewis lung cancer; Dosage 25, ip × 10qd): 33.05%
Weight of the tumor X ± SD, Second time (Lewis lung cancer; Dosage 25, ip × 10qd): 1.58 ± 0.09 g
Body weight of the animals, end, First time (Lewis lung cancer; Dosage 50 (mg/ml)): 23.0 g
Body weight of the animals, end, Second time (Lewis lung cancer; Dosage 50 (mg/ml)): 23.8 g
Body weight of the animals, beginning, First time (Lewis lung cancer; Dosage 50, ip × 10qd): 18.3 g
Inhibition rate, First time (Lewis lung cancer; Dosage 50, ip × 10qd): 44.22%
Weight of the tumor X ± SD, First time (Lewis lung cancer; Dosage 50, ip × 10qd): 1.40 ± 0.16 g
Body weight of the animals, beginning, Second time (Lewis lung cancer; Dosage 50, ip × 10qd): 19.8 g
Inhibition rate, Second time (Lewis lung cancer; Dosage 50, ip × 10qd): 42.8%
Weight of the tumor X ± SD, Second time (Lewis lung cancer; Dosage 50, ip × 10qd): 1.35 ± 0.14 g
Inhibition rate (%) Lewis cancer (Lewis lung cancer): 44.22%
IC50 (HepG2; HepG2, MTT, read-out: IC50): 90 µM
IC50 (Lovo; Lovo, MTT, read-out: IC50): 80 µM
IC50 (Hela; Hela, MTT, read-out: IC50): 100 µM
LD50 at 2 weeks (in vivo): 183 mg/kg
IC50 (PLA-801; PLA-801, MTT, read-out: IC50): 260 µM
Death rate (Kunming mice; [1]): 90
Death rate (Kunming mice; [2]): 100
Death rate (Kunming mice; female mice, 240 mg/kg): 100
Death rate (Kunming mice; female mice, 300 mg/kg): 100
Death rate (Kunming mice; male mice, 240 mg/kg): 80
Death rate (Kunming mice; male mice, 300 mg/kg): 100
LD50 (Kunming mice; mouse, in vivo, ip): 159 to 211 mg/kg
IC50 (Bel-7402; BeI7402, MTT, read-out: IC50): 230 µM
IC50 (NIH3T3; NIH3T3, MTT, read-out: IC50): 100 µM
IC50 (BGC-823; BGC823, MTT, read-out: IC50): 110 µM

COC(=O)c1cc2c([nH]c3ccccc32)c(-c2ccc(O)cc2)n1 [Compound 16, methyl 1-(4-hydroxyphenyl)-β-carboline-3-carboxylate]
Inhibition rate (%) S180 sarcomata (S180 sarcoma): 32.96%
Inhibition rate (%) Lewis cancer (Lewis lung cancer): 37.86%
IC50 (HepG2; HepG2, MTT, read-out: IC50): > 5000 µM
IC50 (Lovo; Lovo, MTT, read-out: IC50): 620 µM
IC50 (Hela; Hela, MTT, read-out: IC50): 150 µM
MTD at 2 weeks (in vivo): 240 mg/kg
IC50 (PLA-801; PLA-801, MTT, read-out: IC50): 1020 µM
Death rate (Kunming mice; [1]): 0
Death rate (Kunming mice; [2]): 30
Sex (Kunming mice; both, Kunming, mouse, in vivo, ip, 2 weeks): 240
Death rate (Kunming mice; female mice, 240 mg/kg): 0
Death rate (Kunming mice; female mice, 300 mg/kg): 40
Death rate (Kunming mice; male mice, 240 mg/kg): 0
Death rate (Kunming mice; male mice, 300 mg/kg): 20
IC50 (Bel-7402; BeI7402, MTT, read-out: IC50): 1080 µM
IC50 (NIH3T3; NIH3T3, MTT, read-out: IC50): 2180 µM
IC50 (BGC-823; BGC823, MTT, read-out: IC50): 970 µM
